From patent publication US4333938A, “Imino derivatives of 5-aminobenzodioxole-1,3 which are useful as medicaments” (Laboratoires Sarget, priority 1979, dated 1982)

Tests used:
[1] = oral toxicity (mortality) in the mouse; settings: in vivo, Swiss mice
Experimental: The percentages of mortality produced by the compounds of this invention when administered orally to Swiss mice are shown in Table 1. The animals, free from specific pathogenic organisms were housed in an air conditioned room for 24 to 48 hours before the start of the experiment. They were separated into groups of 5 males and 5 females. The materials were administered to animals which had been fasted for 24 hours by means of a gastric tube in suspension in a 6% thickened julep using a volume equivalent to 0.1 ml per 10 g of body weight. […] They remained under observation for two weeks before being sacrificed and autopsied.

[2] = tested on: phenylbenzoquinone (PBQ); experiment: analgesic activity, phenylbenzoquinone (PBQ) challenge; type: in vivo; settings: male Swiss mouse, oral; for ED50: method of Lichfield and Wilcoxon
Experimental: The analgesic activity was determined in the male Swiss mouse using phenylbenzoquinone (PBQ) as the challenging agent (variation of the method of Siegmund et al, Proc. Soc. Exp. Biol. Med. […], 95, 729-31). […] The ED50 was determined by the method of Lichfield and Wilcoxon.

[3] = tested on: carageenan-induced edema; experiment: inhibition of carrageenan-induced edema; type: in vivo, male Wistar rat; settings: oral
Experimental: The inflammation is produced in the male Wistar rat by injection of 0.1 ml of a 0.5% suspension of carageenan in physiological serum, into the muscular fascia of the metatarsal region of the hind foot of the animal. The test substance is administered orally at the same time as the carageenan or 30 or 60 min before carageenan. The edema is measured by plethysmometry three hours after the adminstration of the carrageenan.

[4] = tested on: carrageenan-induced granulomas; experiment: activity on carrageenan-induced granulomas; type: in vivo, Male Wistar rats
Experimental: Male Wistar rats weighing 130 to 150 grams were given a subcutaneous injection in the central part of the skin of the back of 0.5 ml of an aqueous suspension of carrageenan. Two doses of the test substance are administered, one 30 minutes before and the other 6 hours after carrageenan. At the end of 24 hours the rats were sacrificed and the granulomas were removed and weighed before and after drying for 24 hours at 50° C. The difference in weight of the granulomas wet and dry represents the exudate
These AD50 are respectively 175(142-215) and 175(150-205) mg/kg.

[5] = tested on: cotton pellet granulomas; experiment: inhibition of cotton pellet granulomas; type: in vivo, male Sprague-Dawley rats; settings: oral, daily for 10 days
Experimental: Two cotton pellets weighing 70 mg were implanted under the back skin of male Sprague-Dawley rats anesthetized with ether. Starting the next day, the compound was administered orally daily for 10 days. The rats were sacrificed and the pellets were removed and weighed before and after drying at 50° C. for 24 hours. The weights used were those obtained after deduction of the weight of the implants. The average of the quantities so calculated was determined for each group and compared to the averages of the control group.

[6] = tested on: stomachs; experiment: ulcerogenic activity; type: in vivo, female Wistar rat; settings: 150 mg/kg daily
Experimental: The ulcerogenic activity was determined in the female Wistar rat using a variation of the procedure described by J. M. Lwoff, J. Pharmacol. 1971, 3, 1, 81-3. The test substance was administered daily for 3 days to the animals maintained on a aqueous diet. The stomachs were removed after 1, 2, and 3 days of treatment and the ulcerations were classified from 0 to 4. The ulceration index is calculated for each group of animals as the product (average of the classes x the percentage of animals afflicted), while distinguishing acute ulcerations from ulcers which were in the process of healing.

[7] = solubility in water; type: physicochemical

Work on `Cc1ccsc1C=Nc1ccc2c(c1)OCO2` [Example 4, N-(3-methyl-2-thienylidene)-5-aminobenzodioxole-1,3] yielded a mortality at 336 h ([1]; 750 mg/kg) of 10%, a mortality at 336 h ([1]; 1000 mg/kg) of 10% and a mortality at 336 h ([1]; 1500 mg/kg) of 60%. The mortality at 336 h ([1]; 1750 mg/kg) was 20%, the mortality at 336 h ([1]; 2000 mg/kg) was 20% and the “% analgesic activity” value ([2]; 75 mg/kg) was 21%. The “% analgesic activity” value ([2]; 100 mg/kg) was 40%, the “% analgesic activity” value ([2]; 150 mg/kg) was 37% and the “% analgesic activity” value ([2]; 200 mg/kg) was 62%. The “% analgesic activity” value ([2]; 300 mg/kg) was 67%, the ED50 [2] was 170 mg/kg and the “% inhibiting activity on carrageenan-induced edema” value (“% inhibiting activity” below) ([3]; at To, 75 mg/kg) was 35%. The “% inhibiting activity” value ([3]; at To, 150 mg/kg) was 35%, the “% inhibiting activity” value ([3]; at To, 300 mg/kg) was 68% and the “Exudate, % activity” value ([4]; 100 mg/kg administered twice) was 21%. The “Exudate, % animals 30% protected” value ([4]; 100 mg/kg administered twice) was 38%, the “Weight of dry granuloma, % activity” value ([4]; 100 mg/kg administered twice) was 16% and the “Weight of dry granuloma, % animals 30% protected” value ([4]; 100 mg/kg administered twice) was 31%. For the same compound, the “Weight of wet granuloma, % activity” value ([4]; 100 mg/kg administered twice) was 20.5%, the “Weight of wet granuloma, % animals 30% protected” value ([4]; 100 mg/kg administered twice) was 38% and the “Exudate, % activity” value ([4]; 200 mg/kg administered twice) was 34.5%. The “Exudate, % animals 30% protected” value ([4]; 200 mg/kg administered twice) was 71%, the “Weight of dry granuloma, % activity” value ([4]; 200 mg/kg administered twice) was 31% and the “Weight of dry granuloma, % animals 30% protected” value ([4]; 200 mg/kg administered twice) was 64%. For the same compound, the “Weight of wet granuloma, % activity” value ([4]; 200 mg/kg administered twice) was 34%, the “Weight of wet granuloma, % animals 30% protected” value ([4]; 200 mg/kg administered twice) was 71% and the “Exudate, % activity” value ([4]; 300 mg/kg administered twice) was 44.5%. The “Exudate, % animals 30% protected” value ([4]; 300 mg/kg administered twice) was 75%, the “Weight of dry granuloma, % activity” value ([4]; 300 mg/kg administered twice) was 42.5% and the “Weight of dry granuloma, % animals 30% protected” value ([4]; 300 mg/kg administered twice) was 67%. For the same compound, the “Weight of wet granuloma, % activity” value ([4]; 300 mg/kg administered twice) was 44.5%, the “Weight of wet granuloma, % animals 30% protected” value ([4]; 300 mg/kg administered twice) was 75% and the “% inhibition with respect to dry pellets” value ([5]; dose 150) was 10%. The “% inhibition with respect to wet pellets” value ([5]; dose 150) was 13%, the “% inhibition with respect to dry pellets” value ([5]; dose 300) was 19% and the “% inhibition with respect to wet pellets” value ([5]; dose 300) was 14%. The “Ulceration Index, acute” value ([6]; Day 1) was 0, the “Ulceration Index, healing” value ([6]; Day 1) was 0 and the “Ulceration Index, acute” value ([6]; Day 2) was 0. For the same compound, the “Ulceration Index, healing” value ([6]; Day 2) was 8, the “Ulceration Index, acute” value ([6]; Day 3) was 72 and the “Ulceration Index, healing” value ([6]; Day 3) was 16. For the same compound, the solubility in water [7] was “insoluble in water”.

For `CC(=O)Oc1ccccc1C(=O)O` [Aspirin, reference compound], the “% inhibiting activity” value ([3]; at To, 75 mg/kg) was 40%, the “% inhibiting activity” value ([3]; at To, 150 mg/kg) was 46% and the “% inhibiting activity” value ([3]; at To, 300 mg/kg) was 68%. For the same compound, the “% inhibiting activity” value ([3]; at To, 450 mg/kg) was 64%.

`C(=Nc1ccc2c(c1)OCO2)c1cccs1` [Example 1, N-thienylidene-5-aminobenzodioxole-1,3] gave a mortality at 336 h ([1]; 1000 mg/kg) of 0%, a mortality at 336 h ([1]; 1500 mg/kg) of 20% and a mortality at 336 h ([1]; 2000 mg/kg) of 60%. The mortality at 336 h ([1]; 3000 mg/kg) was 70%, the “% analgesic activity” value ([2]; 100 mg/kg) was 34% and the “% analgesic activity” value ([2]; 125 mg/kg) was 43%. The “% analgesic activity” value ([2]; 150 mg/kg) was 69%, the “% analgesic activity” value ([2]; 200 mg/kg) was 73% and the ED50 [2] was 130 mg/kg. The “% inhibiting activity” value ([3]; at To (same time as carrageenan), 25 mg/kg) was 19%, the “% inhibiting activity” value ([3]; at To, 50 mg/kg) was 41% and the “% inhibiting activity” value ([3]; at To, 100 mg/kg) was 52%. The “% inhibiting activity” value ([3]; at To, 200 mg/kg) was 56%, the “% inhibiting activity” value ([3]; at To, 400 mg/kg) was 58% and the “Exudate, % activity” value ([4]; 200 mg/kg administered twice) was 6%. For the same compound, the “Exudate, % animals 30% protected” value ([4]; 200 mg/kg administered twice) was 12.5%, the “Weight of dry granuloma, % activity” value ([4]; 200 mg/kg administered twice) was 1% and the “Weight of dry granuloma, % animals 30% protected” value ([4]; 200 mg/kg administered twice) was 12.5%. For the same compound, the “Weight of wet granuloma, % activity” value ([4]; 200 mg/kg administered twice) was 6%, the “Weight of wet granuloma, % animals 30% protected” value ([4]; 200 mg/kg administered twice) was 12.5% and the solubility in water [7] was “insoluble in water”.
